Literature values in patent US20050009793A1, “Treatment of liver disease with active vitamin D compounds” (Novacea, Inc., priority 2002, published 2005).

Details: in vivo

Row | Hypercalcemic effect compared to calcitriol | Compound
1 | reduced hypercalcemic effect | C=C1/C(=C\C=C2/CCC[C@]3(C)C([C@H](C)CC#CC(C)(C)O)=CC[C@@H]23)C[C@@H](O)C[C@@H]1O [Ro23-7553]
2 | reduced hypercalcemic effect | C=C1/C(=C/C=C2\CCC[C@]3(C)C([C@H](C)CC#CC(O)(C(F)(F)F)C(F)(F)F)=CC[C@@H]23)C[C@@H](O)C[C@@H]1O [Ro24-5531]
